Measurements taken from patent US12564194B2, “Herbicide mixture, herbicidal composition, method and kit for controlling undesired vegetation” (Adama Agan Ltd., priority 2020, dated 2026).

Key:
Format in all cases: in vivo
Aegilops tauschii [1] = assay: Soil sealing treatment pot experiment for controlling Aegilops tauschii (Example 1); conditions: for control effect on Aegilops tauschii: single active ingredient, summary of Table 2
Text: (§1) Referring to an article of Colby, S. R. i.e., Calculation of the synergistic and antagonistic response of herbicide combinations. Weeds 1967, 15, pp. 20-22 (which is incorporated herein in its entirety by reference), the theoretical value E0 of a given mixture of three active ingredients may be predicted according to the following equation, then evaluating whether there is synergy.
(§2) [formula] • wherein: • E0 is the theoretical fresh weight survival rate for the mixture of pyroxasulfone, chlorotoluron and […]; • X is the measured fresh weight survival rate for pyroxasulfone used alone in the same dosage as that in the mixture; • Y is the measured fresh weight survival rate for chlorotoluron used alone in the same dosage as that in the mixture; • Z is the measured fresh weight survival rate for mesosulfuron-methyl used alone in the same dosage as that in the mixture. • E is the measured fresh weight survival rate for the mixture of pyroxasulfone, chlorotoluron and mesosulfuron-methyl. • E0-E value is calculated to evaluate the combined effect of pyroxasulfone, chlorotoluron and mesosulfuron-methyl on the selected weeds.
(§3) In this example, the herbicidal activity of a mixture of pyroxasulfone, chlorotoluron and mesosulfuron-methyl for soil sealing treatment to control Aegilops tauschii is investigated by a pot experiment method under the conditions of a glass greenhouse. This example is carried out in accordance with “NY/T 1155.4-2006 Guidelines for Indoor Bioassay Tests of Pesticides, Herbicides Part 4: Activity Determination Tests, Stem and Leaf Spray Method”.
(§4) • Pyroxasulfone: pyroxasulfone (850 g/Kg, WG) from Adama Agan LTD. • Chlorotoluron: chlorotoluron (90 wt %, WG) from Adama Agan LTD. • Mesosulfuron-methyl: Sigma (30 g/L, OD) from Bayer AG. • Test location: Greenhouse of Institute of Plant Protection, Shandong Academy of Agricultural Sciences • Cultivation of test materials: The test soil is formed by mixing the 20 cm layer loam on the ground surface and the culture medium in a ratio of 3:1 as cultivation soil.
(§5) The test weeds are cultivated in a glass greenhouse at a temperature of 15-30° C. and natural light. A certain amount of Aegilops tauschil seeds are sown in a plastic pot with a diameter of 9 cm, covering with 1-2 mm soil, and putting them in an enamel dish filled with water. The bottom infiltration method is used to water them, waiting for the water to seep to the soil surface, and then transferring to a glass greenhouse for cultivation. The agents are applied on the second day after sowing Aegilops tauschii seeds.
(§6) For each active ingredient, the multiple dilution method is used to obtain the other five lower dosages from the highest dosage. A certain amount of agent is measured by pipette or balance, adding it directly to the water, and then diluting it to the required dosage by the multiple dilution method.
(§7) Spraying treatment: ASS-4 automatic control spraying system with a fan-shaped nozzle is used indoors to spray agent, the running speed is adjusted based on nozzle pressure, flow rate, etc. to spray 50 mL of chemical solution on the actual spray area of 1.1 m^2 (equivalent to 30 liters per mu), arranging the plastic pots to be processed on the spraying table evenly, and spraying evenly. The spraying pressure is 0.35 MPa, and the flow rate of the fan-shaped nozzle is 800 mL/min, spraying in order from low dosage to high dosage. Each treatment is repeated 3 times. After spraying, let it dry for one day, placing it in a glass greenhouse, and watering it regularly to keep moist.
Application time and frequency: the experiment is conducted on the second day after sowing Aegilops tauschii seeds, and the soil is evenly sprayed. The application time is Mar. 10, 2020, with one application.
Weed investigation method and time: after applying the agent, the symptoms of weed damage (such as growth inhibition, chlorosis, deformity, etc.) are recorded in detail. […]

Aegilops tauschii [2] = assay: Soil sealing treatment pot experiment for controlling Aegilops tauschii, more mixing ratios (Example 3)
Text: as §1, §2, §3, §4, §5, §6, §7
Weed investigation method and time: after applying the agent, the symptoms of weed damage (such as growth inhibition, chlorosis, deformity, etc.) are recorded in detail. After 35 days, the fresh weight of aerial part of the weeds in each treatment is weighed, and the measured fresh weight inhibition rate and the measured fresh weight survival rate for each treatment are calculated according to the following equations: […]

Lolium multiflorum Lamk = assay: Soil sealing treatment pot experiment for controlling Lolium multiflorum Lamk (Example 2); conditions: 35 days

`Cc1ccc(NC(=O)N(C)C)cc1Cl` [chlorotoluron, 3-(3-chloro-4-methylphenyl)-N,N-dimethylurea] was tested, and the “Measured fresh weight survival rate (%) - E” value (Aegilops tauschii [1]; 70.3125 gai/ha, 35 days) was 102.6%, the “Measured fresh weight survival rate (%) - E” value (Aegilops tauschii [1]; 140.625 gai/ha, 35 days) was 101.3% and the “Measured fresh weight survival rate (%) - E” value (Aegilops tauschii [1]; 281.25 gai/ha, 35 days) was 92.21%. For the same molecule, the “Measured fresh weight survival rate (%) - E” value (Aegilops tauschii [1]; 562.5 gai/ha, 35 days) was 81.82%, the “Measured fresh weight survival rate (%) - E” value (Aegilops tauschii [1]; 1125 gai/ha, 35 days) was 72.73% and the “Measured fresh weight survival rate (%) - E” value (Aegilops tauschii [1]; 2250 gai/ha, 35 days) was 36.36%. For the same molecule, the inhibition at 70.3125 g/ha (Aegilops tauschii [1]; Aegilops tauschii, soil, 840 h, 70.3125 gai/ha, 35 days, read-out: Measured fresh weight inhibition rate (%)) was -2.6%, the inhibition at 140.625 g/ha (Aegilops tauschii [1]; Aegilops tauschii, soil, 840 h, 140.625 gai/ha, 35 days, read-out: Measured fresh weight inhibition rate (%)) was -1.3% and the inhibition at 281.25 g/ha (Aegilops tauschii [1]; Aegilops tauschii, soil, 840 h, 281.25 gai/ha, 35 days, read-out: Measured fresh weight inhibition rate (%)) was 7.79%. The inhibition at 562.5 g/ha (Aegilops tauschii [1]; Aegilops tauschii, soil, 840 h, 562.5 gai/ha, 35 days, read-out: Measured fresh weight inhibition rate (%)) was 18.2%, the inhibition at 1125 g/ha (Aegilops tauschii [1]; Aegilops tauschii, soil, 840 h, 1125 gai/ha, 35 days, read-out: Measured fresh weight inhibition rate (%)) was 27.3% and the inhibition at 2250 g/ha (Aegilops tauschii [1]; Aegilops tauschii, soil, 840 h, 2250 gai/ha, 35 days, read-out: Measured fresh weight inhibition rate (%)) was 63.6%. The “control effect on Aegilops tauschii” value (Aegilops tauschii [1]) was “certain effect”, the “Actual fresh weight survival rate (%) - E” value (Aegilops tauschii [2]; 562.5 gai/ha) was 80.2% and the “Actual fresh weight survival rate (%) - E” value (Aegilops tauschii [2]; 1125 gai/ha) was 72.4%. The “Actual fresh weight survival rate (%) - E” value (Aegilops tauschii [2]; 2250 gai/ha) was 52.6%, the inhibition at 562.5 g/ha (Aegilops tauschii [2]; Aegilops tauschii, soil, 562.5 gai/ha, read-out: Actual fresh weight inhibition rate %) was 19.8% and the inhibition at 1125 g/ha (Aegilops tauschii [2]; Aegilops tauschii, soil, 1125 gai/ha, read-out: Actual fresh weight inhibition rate %) was 27.6%. The inhibition at 2250 g/ha (Aegilops tauschii [2]; Aegilops tauschii, soil, 2250 gai/ha, read-out: Actual fresh weight inhibition rate %) was 47.4%, the “Measured fresh weight survival rate (%) - E” value (Lolium multiflorum Lamk; 70.3125 gai/ha) was 96.7% and the “Measured fresh weight survival rate (%) - E” value (Lolium multiflorum Lamk; 140.625 gai/ha) was 91.21%. For the same molecule, the “Measured fresh weight survival rate (%) - E” value (Lolium multiflorum Lamk; 281.25 gai/ha) was 87.91%, the “Measured fresh weight survival rate (%) - E” value (Lolium multiflorum Lamk; 562.5 gai/ha) was 83.52% and the “Measured fresh weight survival rate (%) - E” value (Lolium multiflorum Lamk; 1125 gai/ha) was 25.27%. For the same molecule, the “Measured fresh weight survival rate (%) - E” value (Lolium multiflorum Lamk; 2250 gai/ha) was 0%, the inhibition at 70.3125 g/ha (Lolium multiflorum Lamk; Lolium multiflorum, soil, 840 h, 70.3125 gai/ha, read-out: Measured fresh weight inhibition rate (%)) was 3.3% and the inhibition at 140.625 g/ha (Lolium multiflorum Lamk; Lolium multiflorum, soil, 840 h, 140.625 gai/ha, read-out: Measured fresh weight inhibition rate (%)) was 8.79%. It also gave an inhibition at 281.25 g/ha (Lolium multiflorum Lamk; Lolium multiflorum, soil, 840 h, 281.25 gai/ha, read-out: Measured fresh weight inhibition rate (%)) of 12.1%, an inhibition at 562.5 g/ha (Lolium multiflorum Lamk; Lolium multiflorum, soil, 840 h, 562.5 gai/ha, read-out: Measured fresh weight inhibition rate (%)) of 16.5% and an inhibition at 1125 g/ha (Lolium multiflorum Lamk; Lolium multiflorum, soil, 840 h, 1125 gai/ha, read-out: Measured fresh weight inhibition rate (%)) of 74.7%. The inhibition at 2250 g/ha (Lolium multiflorum Lamk; Lolium multiflorum, soil, 840 h, 2250 gai/ha, read-out: Measured fresh weight inhibition rate (%)) was 100%.
In the case of `COC(=O)c1ccc(CNS(C)(=O)=O)cc1S(=O)(=O)NC(=O)Nc1nc(OC)cc(OC)n1` [mesosulfuron-methyl, 2-[3-(4,6-dimethoxypyrimidin-2-yl)ureasulfonyl]-4-methylsulfonamide methyl benzoate], the “Measured fresh weight survival rate (%) - E” value (Aegilops tauschii [1]; 1.25 gai/ha, 35 days) was 96.1%, the “Measured fresh weight survival rate (%) - E” value (Aegilops tauschii [1]; 2.5 gai/ha, 35 days) was 100% and the “Measured fresh weight survival rate (%) - E” value (Aegilops tauschii [1]; 5 gai/ha, 35 days) was 94.81%. The “Measured fresh weight survival rate (%) - E” value (Aegilops tauschii [1]; 10 gai/ha, 35 days) was 83.12%, the “Measured fresh weight survival rate (%) - E” value (Aegilops tauschii [1]; 20 gai/ha, 35 days) was 71.43% and the “Measured fresh weight survival rate (%) - E” value (Aegilops tauschii [1]; 40 gai/ha, 35 days) was 88.31%. It also gave an inhibition at 1.25 g/ha (Aegilops tauschii [1]; Aegilops tauschii, soil, 840 h, 1.25 gai/ha, 35 days, read-out: Measured fresh weight inhibition rate (%)) of 3.9%, an inhibition at 2.5 g/ha (Aegilops tauschii [1]; Aegilops tauschii, soil, 840 h, 2.5 gai/ha, 35 days, read-out: Measured fresh weight inhibition rate (%)) of 0% and an inhibition at 5 g/ha (Aegilops tauschii [1]; Aegilops tauschii, soil, 840 h, 5 gai/ha, 35 days, read-out: Measured fresh weight inhibition rate (%)) of 5.19%. The inhibition at 10 g/ha (Aegilops tauschii [1]; Aegilops tauschii, soil, 840 h, 10 gai/ha, 35 days, read-out: Measured fresh weight inhibition rate (%)) was 16.9%, the inhibition at 20 g/ha (Aegilops tauschii [1]; Aegilops tauschii, soil, 840 h, 20 gai/ha, 35 days, read-out: Measured fresh weight inhibition rate (%)) was 28.6% and the inhibition at 40 g/ha (Aegilops tauschii [1]; Aegilops tauschii, soil, 840 h, 40 gai/ha, 35 days, read-out: Measured fresh weight inhibition rate (%)) was 11.7%. The “control effect on Aegilops tauschii” value (Aegilops tauschii [1]) was “substantively ineffective”, the “Actual fresh weight survival rate (%) - E” value (Aegilops tauschii [2]; 5 gai/ha) was 93.1% and the “Actual fresh weight survival rate (%) - E” value (Aegilops tauschii [2]; 10 gai/ha) was 88.8%. For the same molecule, the “Actual fresh weight survival rate (%) - E” value (Aegilops tauschii [2]; 20 gai/ha) was 76.7%, the inhibition at 5 g/ha (Aegilops tauschii [2]; Aegilops tauschii, soil, 5 gai/ha, read-out: Actual fresh weight inhibition rate %) was 6.9% and the inhibition at 10 g/ha (Aegilops tauschii [2]; Aegilops tauschii, soil, 10 gai/ha, read-out: Actual fresh weight inhibition rate %) was 11.2%. The inhibition at 20 g/ha (Aegilops tauschii [2]; Aegilops tauschii, soil, 20 gai/ha, read-out: Actual fresh weight inhibition rate %) was 23.3%, the “Measured fresh weight survival rate (%) - E” value (Lolium multiflorum Lamk; 1.25 gai/ha) was 96.7% and the “Measured fresh weight survival rate (%) - E” value (Lolium multiflorum Lamk; 2.5 gai/ha) was 94.51%. For the same molecule, the “Measured fresh weight survival rate (%) - E” value (Lolium multiflorum Lamk; 5 gai/ha) was 83.52%, the “Measured fresh weight survival rate (%) - E” value (Lolium multiflorum Lamk; 10 gai/ha) was 60.44% and the “Measured fresh weight survival rate (%) - E” value (Lolium multiflorum Lamk; 20 gai/ha) was 39.56%. The “Measured fresh weight survival rate (%) - E” value (Lolium multiflorum Lamk; 40 gai/ha) was 6.59%, the inhibition at 1.25 g/ha (Lolium multiflorum Lamk; Lolium multiflorum, soil, 840 h, 1.25 gai/ha, read-out: Measured fresh weight inhibition rate (%)) was 3.3% and the inhibition at 2.5 g/ha (Lolium multiflorum Lamk; Lolium multiflorum, soil, 840 h, 2.5 gai/ha, read-out: Measured fresh weight inhibition rate (%)) was 5.49%. For the same molecule, the inhibition at 5 g/ha (Lolium multiflorum Lamk; Lolium multiflorum, soil, 840 h, 5 gai/ha, read-out: Measured fresh weight inhibition rate (%)) was 16.5%, the inhibition at 10 g/ha (Lolium multiflorum Lamk; Lolium multiflorum, soil, 840 h, 10 gai/ha, read-out: Measured fresh weight inhibition rate (%)) was 39.6% and the inhibition at 20 g/ha (Lolium multiflorum Lamk; Lolium multiflorum, soil, 840 h, 20 gai/ha, read-out: Measured fresh weight inhibition rate (%)) was 60.4%. The inhibition at 40 g/ha (Lolium multiflorum Lamk; Lolium multiflorum, soil, 840 h, 40 gai/ha, read-out: Measured fresh weight inhibition rate (%)) was 93.4%.
